In ChEMBL document CHEMBL1157898 (Bioorg Med Chem Lett, 2010):
One block for each compound: values may come before it. Active and inactive are the calls of the source. The calls are words filed in the database; no cut-off is given here.

What was measured:
[1] = target: T1, Serine/threonine-protein kinase Chk1 (Homo sapiens) (UniProt O14757); assay: Inhibition of CHK1
T1 sequence (whole entry): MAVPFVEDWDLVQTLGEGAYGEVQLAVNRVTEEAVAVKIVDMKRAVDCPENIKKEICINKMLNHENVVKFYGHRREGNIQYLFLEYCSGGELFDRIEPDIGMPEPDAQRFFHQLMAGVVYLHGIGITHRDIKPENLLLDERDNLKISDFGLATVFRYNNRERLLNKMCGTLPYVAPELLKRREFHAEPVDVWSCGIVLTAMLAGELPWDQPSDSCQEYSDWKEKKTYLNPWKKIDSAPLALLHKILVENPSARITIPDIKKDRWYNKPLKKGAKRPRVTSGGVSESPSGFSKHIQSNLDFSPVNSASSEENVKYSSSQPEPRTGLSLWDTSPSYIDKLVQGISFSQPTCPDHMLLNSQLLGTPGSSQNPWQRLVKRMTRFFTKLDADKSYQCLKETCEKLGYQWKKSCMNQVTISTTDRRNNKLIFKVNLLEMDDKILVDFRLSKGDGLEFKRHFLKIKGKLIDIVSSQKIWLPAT

[2] = target: Casein kinase I isoform delta (Homo sapiens) (UniProt P48730); assay: Inhibition of CK1delta
[3] = target: Casein kinase I isoform delta (Homo sapiens) (UniProt P48730); assay: Inhibition of casein kinase delta at 10 uM; values are per cent of control
[4] = target: T2, Calcium/calmodulin-dependent protein kinase type IV (Homo sapiens) (UniProt Q16566); assay: Inhibition of CAMK4
T2 sequence (whole entry): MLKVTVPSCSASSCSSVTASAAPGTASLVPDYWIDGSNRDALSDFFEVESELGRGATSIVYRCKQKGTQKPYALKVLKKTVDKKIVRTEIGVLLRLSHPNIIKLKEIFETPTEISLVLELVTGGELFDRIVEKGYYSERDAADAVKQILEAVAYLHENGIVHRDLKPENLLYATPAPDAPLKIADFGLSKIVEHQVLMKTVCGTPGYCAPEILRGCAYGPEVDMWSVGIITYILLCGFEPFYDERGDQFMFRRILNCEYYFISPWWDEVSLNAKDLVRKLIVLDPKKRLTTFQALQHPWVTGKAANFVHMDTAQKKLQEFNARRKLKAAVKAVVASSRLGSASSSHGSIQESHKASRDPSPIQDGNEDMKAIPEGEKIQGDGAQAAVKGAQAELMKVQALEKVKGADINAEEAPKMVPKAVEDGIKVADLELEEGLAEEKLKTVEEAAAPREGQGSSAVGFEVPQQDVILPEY

[5] = Inhibition of AMPK
[6] = target: T3, Gamma-secretase (Homo sapiens) (UniProt Q96BI3+Q9NZ42+Q8WW43+P49768+Q92542+P49810); assay: Inhibition of gamma secretase in HEK293 cells assessed as amyloid beta 38 secretion at 50 uM; assay type: cell-based
[7] = target: T3, Gamma-secretase (Homo sapiens); assay: Inhibition of gamma secretase in HEK293 cells assessed as amyloid beta secretion at 250 uM; assay type: cell-based
[8] = target: T3, Gamma-secretase (Homo sapiens); assay: Inhibition of gamma secretase in HEK293 cells assessed as amyloid beta 40 secretion at 50 uM; assay type: cell-based
N2a [9] = assay: Inhibition of gamma secretase mediated amyloid beta 42 secretion in mouse N2a cells overexpressing CK1epsilon-271 within 5- to 50 uM after 3hr; assay type: cell-based
N2a [10] = assay: Inhibition of gamma secretase mediated amyloid beta 40 secretion in mouse N2a cells overexpressing CK1epsilon-271 within 5- to 50 uM after 3hr; assay type: cell-based
[11] = target: T3, Gamma-secretase (Homo sapiens); assay: Inhibition of gamma secretase in HEK293 cells assessed as amyloid beta 42 secretion at 50 uM; assay type: cell-based
[12] = target: T3, Gamma-secretase (Homo sapiens); assay: Inhibition of gamma secretase in HEK293 cells assessed as amyloid beta secretion at 150 uM; assay type: cell-based
[13] = target: T3, Gamma-secretase (Homo sapiens); assay: Inhibition of gamma secretase in HEK293 cells assessed as amyloid beta secretion; assay type: cell-based
[14] = target: T3, Gamma-secretase (Homo sapiens); assay: Inhibition of gamma secretase mediated amyloid beta 42 generation in human H4 cells at 5 uM by LPECL assay; values are per cent of control
[15] = target: T3, Gamma-secretase (Homo sapiens); assay: Inhibition of gamma secretase mediated amyloid beta 38 generation in human H4 cells at 5 uM by LPECL assay; values are per cent of control
[16] = target: T3, Gamma-secretase (Homo sapiens); assay: Inhibition of gamma secretase mediated amyloid beta 40 generation in human H4 cells at 5 uM by LPECL assay; values are per cent of control

Casein kinase I isoform delta (Homo sapiens), sequence (P48730 whole entry, looked up, canonical isoform): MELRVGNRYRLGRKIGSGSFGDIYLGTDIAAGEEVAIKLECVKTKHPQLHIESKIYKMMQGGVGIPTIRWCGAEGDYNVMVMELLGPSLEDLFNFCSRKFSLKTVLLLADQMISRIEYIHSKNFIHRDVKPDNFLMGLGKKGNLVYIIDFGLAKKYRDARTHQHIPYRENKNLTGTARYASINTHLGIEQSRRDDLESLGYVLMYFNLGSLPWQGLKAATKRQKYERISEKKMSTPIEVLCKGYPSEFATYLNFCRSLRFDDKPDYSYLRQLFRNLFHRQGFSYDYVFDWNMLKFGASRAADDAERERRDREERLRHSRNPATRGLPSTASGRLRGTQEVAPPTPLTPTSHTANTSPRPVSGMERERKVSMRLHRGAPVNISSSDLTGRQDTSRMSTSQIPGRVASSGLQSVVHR

Structure (SMILES): COc1cc(OC)c(C=C2C(=O)Nc3ccccc32)c(OC)c1
inhibition [6]: inactive
inhibition [1]: inactive
inhibition [7]: Active
residual activity [3]: 19%
inhibition [8]: inactive
inhibition [4]: inactive
inhibition [5]: inactive
inhibition (N2a [9]): 61%
inhibition (N2a [10]): 68%
inhibition [11]: inactive
inhibition [12]: inactive

Structure (SMILES): CCN(CC)CCNC(=O)c1c(C)[nH]c(/C=C2\C(=O)Nc3ccc(F)cc32)c1C [SUNITINIB]
Activity [13]: inactive

Structure (SMILES): O=C1Nc2ccc(Cl)cc2/C1=C\c1cc(F)cc(F)c1
residual activity [14]: 112%
residual activity [15]: 81%
residual activity [16]: 106%

Second part, the compound after the results:

inhibition [1]: inactive
inhibition [2]: inactive
residual activity [3]: 99%
inhibition [4]: inactive
inhibition [5]: inactive
Structure (SMILES): COc1ccc(/C=C2/C(=O)Nc3ccc(Cl)cc32)c(OC)c1OC

inhibition ([1]; concentration not given here): < 20%
inhibition ([2]; concentration not given here): < 20%
residual activity [3]: 87%
inhibition ([4]; concentration not given here): < 20%
inhibition ([5]; concentration not given here): < 20%
Structure (SMILES): COc1cc(OC)c(/C=C2/C(=O)Nc3ccc(Cl)cc32)c(OC)c1
